Experiments:
MEFs [1] = test: Counting of spontaneously beating cells in infected MEFs; type: cell-based, mouse; conditions: for spontaneously beating cells induced by GHMT2m in the presence of inhibitor: GHMT2m-MEFs treated 7 days, counted at day 9, Thiazovivin 2.5 μM, SR-3677 5 μM, GW788388 3 μM, LY-364947 1.5 μM, SD-208 1 μM
Experimental: (§1) Fibroblasts were plated on tissue culture dishes pre-coated with SureCoat (Cellutron) at a density of ˜40 cells/mm^2 before transduction. The fibroblast growth medium was replaced with freshly made viral mixture containing polybrene (Sigma). Twenty-four hours later, fibroblasts were infected again with viral mixture containing polybrene. Twenty fours later, the viral medium was replaced with induction medium, composed of DMEM/199 (4:1) (Gibco), 10% FBS (Gemini), 5% horse serum(Gemini), antibiotics (Gibco), 1× non-essential amino acids (Gibco), 1× essential amino acids (Gibco), 1× B-27 (Gibco), 1× insulin-selenium-transferin (Gibco), 1× vitamin mixture (Gibco), and 1× sodium pyruvate (Gibco). Medium was changed every two-three days until cells were examined.
Cells in 60 mm dishes were examined under an EVOS® FL Color imaging system (Life Technologies) at 25° C. Beating cells were counted at a field with an area of 0.89 mm^2. Ten to fifteen fields in each dish were randomly chosen.

iCMs = test: Spontaneous calcium transients in Fura-2 AM-loaded iCMs; type: cell-based, mouse; set-up: dose or concentration left out as unconfirmed; conditions: iCMs on days 10-12, isoproterenol
Excerpt: To determine whether iCMs were developing functional excitation-contraction (EC) coupling, we imaged spontaneous calcium transients from Fura-2 AM-loaded iCMs. Spontaneous calcium transients were detected in spontaneously beating cells on days 10-12 (FIGS. 68-71). […] To determine whether iCMs are able to appropriately respond to hormone stimulation, a critical function of normal cardiomyocytes, we measured calcium transients in response to the b-adrenergic agonist isoproterenol (Iso).

MEFs [2] = test: qPCR of cardiac genes in reprogramming MEFs; type: cell-based, mouse
Experimental: (§2) Cells were harvested in TRizol reagent (Ambion) for RNA isolation. RNA was extracted with the RNeasy® Plus Universal Mini Kit (Qiagen). RT-PCR was performed using the Superscript III first-strand synthesis system (Invitrogen). qPCR was performed using the SYBR® Green PCR master mix (Applied Biosystems) or StepOne™ Real-Time PCR Systems (Applied Biosystems). Primers are listed in Supplementary Table 1. Ryr2 (Mm00465877_m1) and Myh7 (Mm01319006_91) are Taqman probes (Life technologies).

MEFs [3] = test: Pro-fibrotic marker expression in infected MEFs (qPCR, Western blot, αSMA stress fiber immunostaining); type: cell-based, mouse
Experimental: as §2
Samples were placed on ice and washed with ice-cold DPBS (Gibco) twice, then ice-cold lysis buffer (150 mM NaCl, 50 mM Tris-Cl pH7.4, 1 mM EDTA, 1% Triton, Complete mini tablet (Roche), 1 mM PMSF freshly added before use) was added to the cells. Cells were scraped and transferred to a pre-chilled 1.5 Eppendorf tube and frozen in liquid N2. Before used, the lysate was thawed on ice. The lysate was passed carefully through a 25 g needle for 5 times and then centrifuge at 14,000 rpm for 15 minutes at 4° C. The supernatant was transferred to a new 1.5 ml tube. The protein concentration was measured and 20 ug of lysate for each sample was loaded to SDSPAGE. Proteins were then transferred to PVDF. The PDVF membrane was blocked in 2.5% BSA in 1×TBST for 30 mins at room temperature (RT). The primary antibody was added in blocking buffer for 60 mins at RT. Wash in 1×TBST (20 mM Tris-Cl, pH7.4; 150 mM NaCl; 0.1% Tween20) three times at RT, each for 15 mins. The Secondary antibody was added in blocking buffer for 45 mins at RT. The membrane was washed in 1 XTBST for 15 mins, 1×TBST for 5 mins, then TBS (10 mM Tris-Cl pH8, 150 mM NaCl) for 5 mins. The membrane was resolved with Super Signal® West Pico (34080) or Femto (34095) substrate (Thermo Scientfic). The primary antibodies include: Snail (Cell Signaling, 3879S, 1:1000), Slug (Cell Signaling, 9585S, 1:1000), P-Smad2 (Cell Signaling, 23108P, 1:1000), Smad2 (Cell Signaling, 5339, 1:1000), αSMA (Santa Cruz, SC-32251, 1:10000), cTn1 (Phospho Solutions, 2010-TNI, 1:1000), cTnT (Sigma, T6277, 1:1000), and GAPDH (Ambion, AM4300). The secondary antibodies include: Goat Anti-Mouse IgG (H+L) (Southern Biotech, 1031-05, 1:2000). Goat Anti-Rabbit IgG (Life Technologies, 65-6120, 1:2000). For separation of α- and β-myosin heavy chain, samples were run by modified 6% SDS-PAGE (separating acrylamide/bis ratio 1:100; resolving gel buffer pH 9.0; running gel buffer pH 8.2; β-mercaptoethanol 600 μl/l inner gel buffer). Gels were run overnight at 4° C. and stained with BioSafe Coomassie Blue protein stain.
(§3) Cells were fixed in 2% PFA for 15 min on ice then washed with DPBS (Gibco) three times at RT. The cells were permeabilized in 0.5% Triton X-100 (made in PBS) for 20 min at RT. After washing the cells with DPBS (Gibco), cells were incubated with the primary antibody against α-actinin (Sigma A7811, 1:300), Connexin 43 (Sigma, C6219, 1:500), Troponin T (Thermo Scientific MS-245-P, 1:500), α-SMA (Santa Cruz Biotechnology, SC-32251, 1:800), Myl2 (Proteintech, 10906-1-AP, 1:200), or Myl7 (Proteintech, 17283-1-AP, 1:200) in 10% FBS(Gemini) in DPBS for 1 hour at RT. Cells were wash with DPBS three times, 5 min each. Cell were incubated with the secondary antibody (Alexa Fluor 555 Molecular Probes A21422, 1:1000) and Hoechest (Molecular Probes 33342, 1:5000) for 30 mins at RT.

MEFs [4] = test: Immunocytochemistry for cTnT and α-actinin in infected MEFs; type: cell-based, mouse
Experimental: as §1, §3

[5] = test system: mice following ischemia/reperfusion injury; conditions: cited from earlier work
rats following MI = conditions: cited from earlier work
MEFs [6] = test: Intracellular staining for flow cytometry (cTnT, Myc) in retrovirus-infected MEFs; type: cell-based, mouse; conditions: GHMT-infected MEFs, day 7; alone or treated with TGF-β1 (10 ng/ml) or A83-01 (0.5 μM, day 3 to day 7)
Experimental: C57BL6 pregnant mice at E13 were order from Charles River's laboratory. Embryos at E14.5 were harvested and their internal organs and head were removed. The body below the liver was minced using blade to fine pieces. Minced embryos were incubated with 2 ml of 0.25% trypsinIl mM EDTA, Phenol Red (Gibco) for 40 mins at 37° C. with 5% CO2. Cells were suspended in 25 ml of growth medium (DMEM/Hi glucose (Hyclone) 10% FBS (Gemini), 1.1% Penicillin-Streptomycin (Gibco) and 1.1% GlutaMAX supplement (Gibco)) and then plated on a 15 cm dish. In 24 hours, the media was aspirated and new 25 ml of growth medium was added. In 72 hours, MEFs were harvested and stored for future use.
as §1
Adherent fibroblasts were washed with DPBS (Gibco). Cells were detached from culture dish by treatment with 0.25% Trypsin/EDTA (Gibco) for 3 min at 37° C. Cells were then washed with 4 ml of 5% FBS (Gemini) in DPBS filtered through a cell strainer and centrifuge at 1200 rpm×6 mins. Cells were washed with 500 ul of 1% BSA in DPBS. Cells were fixed with BD Cytofix/Cytoperm™ solution in 0.2 ml/1 million cells in 1.5 ml eppendorf tube for 20 min on ice. Cells were washed with 1 ml of BD perm/wash buffer and Centrifuged for 6 min at 1200 rpm. The supernatant was discarded; cells were washed again with 1 ml of BD Perm/wash buffer and left overnight at 4° C. The next day, Cells were centrifuged for 6 min at 1200 rpm, the supernatant discarded and 100 μl of Blocking buffer made with 5% goat, donkey serum (Sigma: G9023 and D9663) in Perm/wash buffer was added to the cells and incubated for 30 min at RT. A primary antibody: Mouse Troponin T (cTnT) antibody (Thermo Scientific, ms-295-p, 1:200), mouse anti-C-Myc antibody (BD Pharmingen, 551102, 1:200) in 100 μl BD Perm/Wash buffer was added to the cells and incubated for 1 hr at RT. One ml cold BD Perm/wash buffer was added to the cells and centrifuged for 6 min at 1200 rpm. […] Cells were re-suspended in 300 ul of 1% BSA/DPBS and then analyzed using FACS Caliber (BD Sciences) and FlowJo software.

[7] = GFP-, GHMT- and GHMT2m-infected cultures, day 7

## c1ccc(-c2[nH]ncc2-c2ccnc3ccccc23)nc1 [LY-364947]
MEFs [1]
  spontaneously beating cells induced by GHMT2m in the presence of inhibitor: enhanced cardiac reprogramming by inducing more spontaneously beating cells

## CC(C)NCC(O)c1ccc(O)c(O)c1 (stereo not shown) [Iso, isoproterenol]
iCMs
  frequency of cell contraction and spontaneous calcium transients: significantly increased

## C[C@@H](N)[C@H]1CC[C@H](C(=O)Nc2ccncc2)CC1 [Y-27632]
MEFs [2]; reprogramming MEFs treated with Y-27632 for 5 days, day 7
  cardiomyocyte-specific gene expression: enhanced
MEFs [3]; [7]
  Snail and Slug expression: did not change
  expression of Fn-EDA and αSMA: decreased
MEFs [3]; reprogramming MEFs
  inhibition of expression of pro-fibrotic markers, comparison of inhibitors: inhibited expression of pro-fibrotic markers less efficiently than A83-01
MEFs [4]; infected MEFs treated with Y-27632 (30 μM), day 14
  assembly of myocyte sarcomeres: enhanced
MEFs [1]; GHMT2m cultures of MEFs, by day 12, without or with Y-27632 (30 μM)
  beating cell population: ~30%
MEFs [1]; GHMT-infected MEFs, Y-27632 30 μM, by 4 weeks
  increase of the number of beating cells: 7 fold
MEFs [1]; MEFs, GHMT2m alone, or GHMT-infected cultures treated with Y-27632 (30 μM) or A83-01 (0.5 μM)
  time by which cells started to beat: ≤ 12 days
[5]
  infarct size and remodeling: decreased infarct size and remodeling

## O=C(NC1CCOCC1)c1ccc(-c2cc(-c3c[nH]nc3-c3ccccn3)ccn2)cc1 [GW788388]
Rats following MI
  TGF-β activity, cardiac fibrosis, ventricular remodeling, systolic dysfunction: significantly decreased TGF-β activity, cardiac fibrosis and ventricular remodeling with attenuation of systolic dysfunction
MEFs [1]
  spontaneously beating cells induced by GHMT2m in the presence of inhibitor: enhanced cardiac reprogramming by inducing more spontaneously beating cells

## TGF-β1: Recombinant Mouse TGF-beta 1 (R&D Systems 7666-MB-005), pro-fibrotic stimulus
MEFs [2]; GHMT2m-cultures treated with TGF-β1
  expression of other cardiomyocyte markers, including α-actinin, Myh6 and Actc1: significantly down-regulated
MEFs [2]; GHMT-infected cultures treated with TGF-β1 for 4 days
  cardiac gene expression: significantly reduced
MEFs [3]; GHMT2m-fibroblasts treated with TGF-β1
  profibrotic gene Col1a1 expression: enhanced
MEFs [3]; GHMT-infected cultures at day 7, TGF-β1 10 ng/ml, compared to non-treated
  amount of phospho-Smad2, expression of Fn-EDA and Col1a1, formation of αSMA stress fibers: increased
MEFs [4]; GHMT2m-cultures treated with TGF-β1, day 7 and day 14
  fraction of cTnT+ cells: did not significantly decrease
MEFs [4]; GHMT-infected MEFs treated with TGF-β1, day 14
  cTnT+ and α-actinin+ populations: significantly reduced
MEFs [6]
  cTnThigh fraction: approximately 19%
MEFs [1]; GHMT2m-infected MEFs treated with TGF-β1, by one month
  decrease of beating cells: 100 fold
MEFs [1]; GHMT-infected MEFs treated with TGF-β1, by one month
  effect on beating cells: completely abolished

## Fc1ccc(Cl)cc1-c1nc(Nc2ccncc2)c2nccnc2n1 [SD-208]
MEFs [1]
  spontaneously beating cells induced by GHMT2m in the presence of inhibitor: enhanced cardiac reprogramming by inducing more spontaneously beating cells

## O=C(NCc1ccccc1)c1csc(Nc2ccncn2)n1 [Thiazovivin]
MEFs [1]
  spontaneously beating cells induced by GHMT2m in the presence of inhibitor: enhanced cardiac reprogramming and promoted formation of spontaneously beating cells

## CN(C)CCOc1cc(-c2cn[nH]c2)ccc1NC(=O)C1COc2ccccc2O1 (stereo not shown) [SR-3677]
MEFs [1]
  spontaneously beating cells induced by GHMT2m in the presence of inhibitor: enhanced cardiac reprogramming and promoted formation of spontaneously beating cells

— patent US10519423B1, “High efficiency reprogramming of fibroblasts into cardiomyocytes” (The Regents of the University of Colorado, a body corporate, priority 2015, dated 2019)
